Molecules are shown by their SMILES.

One test deals with rDNA. Description: Quantitative PCR (QPCR) assay, rRNA inhibition (rDNA). It is filed as cell-based. The arrangement: Selectivity: reference not given here. As to conditions: for Selectivity: not defined in the patent; for IC50: rRNA inhibition from quantitative PCR assay. An excerpt: In a specific assay embodiment, provided herein is a method for identifying a molecule that modulates ribosomal RNA (rRNA) synthesis, which comprises: contacting cells with a test molecule of Formula (I), (II), (III), (IV), (V), (VI), (VI′), (VII), or (VIII), contacting a ribosomal nucleotide sequence with one or more primers that amplify a portion thereof and a labeled probe that hybridizes to the amplification product, and detecting the amount of the amplification product by hybridization of the labeled probe, whereby a test molecule that reduces or increases the amount of amplification product is identified as a molecule that modulates rRNA synthesis. The labeled probe in some embodiments is added after the primers are added and the rRNA is amplified, and in certain embodiments, the labeled probe and the primers are added at the same time. The portion of ribosomal nucleotide sequence amplified sometimes is at the 5′ end of rDNA.
Real-time quantitative PCR (QPCR) method may be used to detect the changes of the target c-myc and the endogenous reference GAPDH gene copies in the same tube. Generally, cells (15,000 cells/well) are seeded on 96 well flat bottom plates (Corning, N.Y.) and incubated under normal growth conditions for overnight. The next day, the culture medium is exchanged for that containing anticancer drugs at various concentrations and incubated for 4 hrs in a humidified atmosphere of 5% CO2 at 37° C. Total RNA (tRNA) is extracted using the RNeasy 96 Kit (QIAGEN, CA). The concentration of the tRNA is determined by the RiboGreen RNA Quantitation Reagent (Molecular Probes, OR).
A reverse-transcription (RT) reaction may be conducted using 50 ng of tRNA from each well in a 25 μl reaction containing 1× TaqMan RT buffer, 2.5 uM random hexamers, 5.5 mM MgCl2, 0.5 mM each deoxynucleoside triphosphate (dNTP), 30 U MultiScribe Reverse Transcriptase, and 10 U RNase inhibitor. RT reactions are incubated for 10 min at 25° C., reverse-transcribed for 30 min at 48° C., inactivated for 5 min at 95° C., and placed at 4° C. All RT reagents may be purchased from Applied Biosystems, CA.
Real-Time QPCR reaction may be performed in a 50 μl reaction containing the 5 μl of cDNA, 1× Universal PCR Master Mix, 1× c-myc Pre-Developed Primers and Probe set, and 0.8×GAPDH Pre-Developed Primers and Probe set. Because of the relative abundance of GAPDH gene in Hela, GAPDH primers and probe concentration may be adjusted to get accurate threshold cycles (CT) for both genes in the same tube. The threshold cycle (CT) indicates the fractional cycle number at which the amount of amplified target reaches a fixed threshold. By doing so, the GAPDH amplification is stopped before it can limit the common reactants available for amplification of the c-myc. The ΔRn value represents the normalized reporter signal minus the baseline signal. ΔRn increases during PCR as amplicon copy number increases until the reaction approaches a plateau.
The c-myc probe is labeled with 6FAM™ dye-MGB and the GAPDH probe is labeled with VIC™ dye-MTB. Preincubation is performed for 2 min at 50° C. to activate AmpErase UNG enzyme and then for 10 min at 95° C. to activate AmpliTaq DNA Polymerase. DNA is amplified for 40 cycles of 15 sec at 95° C. and 1 min at 60° C. Human c-myc and GAPDH cDNA are amplified, detected, and quantitated in real time using the ABI Prism 7000 Sequence Detection system (Applied Biosystems, CA), which is set to detect both 6-FAM and VIC reporter dyes simultaneously.
The data may be analyzed using the ABI PRISM Sequence Detection System and Microsoft Excel. Relative quantitation is done using the standard curve and comparative CT method at the same time, and both methods gave equivalent results. The cycle at which the amplification plot crosses the CT is known to accurately reflect relative mRNA values. (See, Heid, et al., Genome Res. (1996) 6:986-994; Gibson, et al., Genome Res. (1996) 6:995-1001). […]

Test [1] deals with HCT-116 human colorectal carcinoma cells. Description: Alamar Blue (AB) cell proliferation assay, HCT-116. It is filed as cell-based. As to conditions: 96 h, Alamar Blue cell proliferation inhibition, HCT-116, four days. How it is done:
A representative cell-proliferation assay protocol using Alamar Blue dye (stored at 4° C., use 20 ul per well) is described hereafter.
96-Well Plate Setup and Compound Treatment
a. Split and trypsinize cells.
b. Count cells using hemocytometer.
c. Plate 4,000-5,000 cells per well in 100 μl of medium and seed into a 96-well plate according to the following plate layout. Add cell culture medium only to wells B10 to B12. Wells B1 to B9 have cells but no compound added.
d. Add 100 μl of 2× drug dilution to each well in a concentration shown in the plate layout above. At the same time, add 100 μl of media into the control wells (wells B10 to B12). Total volume is 200 μl/well.
e. Incubate four (4) days at 37° C., 5% CO2 in a humidified incubator.
f. Add 20 μl Alamar Blue reagent to each well.
g. Incubate for four (4) hours at 37° C., 5% CO2 in a humidified incubator.
h. Record fluorescence at an excitation wavelength of 544 nm and emission wavelength of 590 nm using a microplate reader.
In the assays, cells are cultured with a test compound for approximately four days, the dye then is added to the cells and fluorescence of […] dye is detected after approximately four hours. Different types of cells can be utilized in the assays (e.g., HCT-116 human colorectal carcinoma cells, PC-3 human prostatic cancer cells and MiaPaca human pancreatic carcinoma cells). Anti-proliferative effects of representative compounds are provided hereafter.
Representative cassette dosing and bioavailability data are given in Table 8, along with cell proliferation inhibition (from Alamar Blue (AB) assay (e.g., Example 45 herein) and rRNA inhibition (from quantitative PCR (QPCR) assay (e.g., Example 46 herein).
A general note: Alamar Blue is a resazurin reagent that responds to reducing activity.

Usually IC50 stands for the concentration that inhibits the measured activity by half. On to `Cn1c2ccccc2n2c3nc(N4CCOCC4)c(F)cc3c(=O)c(C(=O)NCCN3CCCC3)c12`, for which the Selectivity in the test on rDNA is 7. Moreover, the IC50 with rDNA was 318 nM; in test [1], 307 nM.
The like results for `CN1CCCC1CCNC(=O)c1c(=O)c2cc(F)c(N3CCOCC3)nc2n2c3ccccc3n(C)c12` (stereo not drawn) were, in that order, 8, 521 nM and 210 nM.
On to `Cn1ccnc1CNC(=O)c1c(=O)c2cc(N3CCOCC3)nnc2n2c1sc1ccccc12`, for which, in the test on rDNA, the Selectivity is given as 53 and the IC50 amounted to 334 nM. Also, it took 174 nM to reach half-maximal inhibition in test [1] (IC50).
The like results for `CN1CCCC(NC(=O)c2c(=O)c3cc(F)c(N4CCOCC4)nc3n3c2sc2ccccc23)C1` (stereo not drawn) were, in that order, 862, 29 nM and 27 nM.
Taken in the same sequence, the figures for `O=C(NCC1CCCN1)c1c(=O)c2cc(F)c(N3CCOCC3)nc2n2c1sc1ccccc12` (stereo not drawn) were 25, 16 nM and 9 nM.
Consider `CN1CCCCC1CNc1ccc2c(=O)c(C(=O)NCc3ccncc3)c3sc4ccccc4n3c2n1` (stereo not drawn), for which, in the test with rDNA, the Selectivity was 39 and 67 nM corresponded to half-maximal inhibition (IC50). In test [1], this compound showed an IC50 of 8 nM.
Taken in the same sequence, the figures for `CN1CCCC1CNC(=O)c1c(=O)c2cc(F)c(N3CCOCC3)nc2n2c1sc1ccccc12` (stereo not drawn) were 45, 383 nM and 128 nM.
In the test on rDNA, `CN1CCN(c2nc3c(cc2F)c(=O)c(C(=O)NCc2cn(C)cn2)c2sc4ccccc4n23)CC1` had a Selectivity of 69 and an IC50 of 139 nM. The same compound yielded an IC50 in test [1] of 303 nM.
The like results for `O=C(NCCNC1CCC1)c1c(=O)c2ccc(N3CCOCC3)nc2n2c1sc1ccccc12` were, in that order, 16, 176 nM and 286 nM.
The like results for `CN1CCN(c2ccc3c(=O)c(C(=O)NC4CC4)c4n(C)c5ccccc5n4c3n2)CC1` were, in that order, 4, 127 nM and 202 nM.
In the test on rDNA, `O=C(NCCNC1CC1)c1c(=O)c2ccc(N3CCOCC3)nc2n2c1sc1ccccc12` [drawing 604] displayed a Selectivity of 39. The IC50 was 100 nM in the test with rDNA and 65 nM in test [1].
In turn, `Cc1cnc(CNC(=O)c2c(=O)c3ccc(N4CCN(C)CC4)nc3n3c2sc2ccccc23)cn1` [drawing 619] registered a Selectivity in the test with rDNA of 13. Further, the IC50 was determined as 69 nM in the test with rDNA and 391 nM in test [1].

The values above are taken from patent US8853234B2, “Quinolone analogs and methods related thereto” (Senhwa Biosciences, Inc., priority 2007, dated 2014).
